# Data published in patent US20140309192A1, “MODULATORS OF THE G PROTEIN-COUPLED MAS RECEPTOR AND THE TREATMENT OF DISORDERS RELATED THERETO” (ARENA PHARMACEUTICALS, INC., priority 2011, published 2014).
# Entries after “also recorded” stand apart in the source; their conditions may differ.
# Columns and labels:
# human Mas receptor [1] = biological target: T1, human Mas receptor (Homo sapiens, UniProt P04201); assay: cAMP Dynamic2 HTRF assay, HEK293 cells stably expressing human Mas receptor; type: cell-based
# T1 construct: expressed in transfected cells; host or cells: HEK293 (ATCC CRL-1573)
# T1 sequence (P04201 1-325): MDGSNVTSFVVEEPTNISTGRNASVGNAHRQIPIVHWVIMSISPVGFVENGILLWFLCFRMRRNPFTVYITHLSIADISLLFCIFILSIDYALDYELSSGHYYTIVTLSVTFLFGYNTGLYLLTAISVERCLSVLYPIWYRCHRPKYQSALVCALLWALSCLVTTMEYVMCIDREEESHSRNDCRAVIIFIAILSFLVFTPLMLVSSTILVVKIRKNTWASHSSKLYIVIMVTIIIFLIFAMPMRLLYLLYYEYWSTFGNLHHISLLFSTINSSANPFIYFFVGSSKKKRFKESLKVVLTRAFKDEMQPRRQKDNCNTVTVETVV
# Description: cAMP accumulation in HEK293 cells stably expressing human or rat Mas receptors was determined by the 384 well cAMP Dynamic2 Homogenous Time-Resolved Fluorescence (HTRF®) assay (CisBio Cat#62AM4PEB) following the manufacturer's protocol. Briefly, cells were plated at 30,000 or 1000 cells per well in 5 μL stimulation buffer (PBS containing 500 μM IBMX and 0.1% bovine serum albumin), 5 μL of Mas compounds diluted in PBS were added to each well and serial diluted cAMP standards were also added to corresponding wells at this step. For detecting […] activities, 10 μM forskolin was included with the compounds for a final concentration of 5 μM at the stimulation step. Following 1 h stimulation at room temperature, d2-labeled cAMP and anti-cAMP cryptate conjugate diluted in detection buffer (included in the kit) were added to cells sequentially at 5 μl per well. The plates were incubated further for 1 h at room temperature. Ratiometic measurements of fluorescence emission at 665 nm and 620 nm were obtained by Pherastar fluorometer (BMG Labtech) and cAMP levels in each well were calculated according to the standard curves on each plate. IC50 values were obtained by fitting data to a nonlinear curve-fitting program (GraphPad Software, Inc., La Jolla Calif.).
# human Mas receptor [2] = biological target: T1, human Mas receptor; assay: Ca2+ measurements by FLIPR assay, HEK293 cells stably expressing human Mas receptors; type: cell-based; settings: HEK293 cells stably expressing the human Mas receptor
# Description: HEK293 cells stably expressing human Mas receptors were monitored for changes in intracellular Ca^2+ using a FLIPR-384 (Molecular Devices, Sunnyvale, Calif.). Cells were seeded into black-walled clear-base 384-well plates at a density of 2×10^4 cells per well and incubated with Hank's Balanced Salt Solution (HBSS) containing 20 mM HEPES pH 7.4, 2 μM Calcium 3 dye (Molecular Devices Corporation, Sunnyvale, Calif.) and 2.5 mM probenecid at 37° C. for 60 min. Cells were washed with HBSS containing 20 mM HEPES, pH 7.4 and 2.5 mM probenecid and the plates were then placed into the FLIPR instrument to monitor cell fluorescence before and after the addition of the agonists at different concentrations.
# [3] = Mean arterial blood pressure in anesthetized rats (Example 4); type: in vivo, rat; settings: low, medium and high dose i.v.; 25 min after starting dosing
# Description: Adult rats were anesthetized with sodium pentobarbital (50 mg/kg i.p.) and placed in the supine position on a surgery frame with a heating pad (37° C.) beneath. Rats were tracheostomized and ventilated with a SAR-830 small-animal ventilator (Model 683, Harvard Apparatus) to provide room air at a tidal volume of 2.5 mL/stroke and at a rate of 70 stroke/min. Polyethylene catheters were placed in the right internal carotid artery and the external jugular vein for measurement of mean arterial blood pressure and infusion of drug or vehicle, respectively.
# Animals were randomly divided into the following 4 groups: (1-3) low, medium, and high doses of Compound 170 administered by continuous i.v. infusion starting 30 min before coronary artery ligation (n=6 per dose), and (4) 20% HPBCD (vehicle, hydroxypropyl-β-cyclodextrin) administered by continuous i.v. infusion beginning 30 min before coronary artery ligation (n=6). All the rat hearts listed above were used for calculation of myocardial infarct size (see below). Mean arterial blood pressure was measured after stabilization and just prior to drug infusion (baseline) and again following 25 min of drug or vehicle infusion, before coronary artery ligation. […]
# LPS induced TNFα = assay: LPS model for sepsis induction, serum TNFα ELISA in mice; type: in vivo, mouse
# Description: Mice were treated intravenously with either 20% DMSO (vehicle), 1, 3 or 10 mg/kg Compound 170 in 20% DMSO. Alternatively animals were treated with 1 mg/kg IB-MECA in 0.1% DMSO as a positive control (n=6 per group). 1 hour after drug treatment, animals received 500 μg of LPS intraperitoneally Animals were bled 75 minutes after LPS treatment and the blood was spun down for serum. An ELISA for mouse TNFα (Invitrogen) was performed on 1:50 diluted samples the following day.
SMILES,"IC50 (human Mas receptor [1]; cAMP assay with forskolin, read-out: Gi coupling IC50)","forskolin stimulated cAMP levels (Mas-Gi activity) (human Mas receptor [1]; cells stably expressing human or rat Mas receptor, 5 μM forskolin)",intracellular Ca2+ (human Mas receptor [2]),mean arterial blood pressure (MAP) compared to vehicle treatment [3],"Suppression of TNFα induction compared with positive control (LPS induced TNFα; 10 mg/kg i.v., IB-MECA 1 mg/kg)","Suppression of TNFα induction (LPS induced TNFα; 1, 3 or 10 mg/kg i.v. 1 hour before 500 μg LPS i.p., serum 75 minutes after LPS)"
COc1cc([N+](=O)[O-])ccc1S(=O)(=O)N1CC(CN2CCN(c3ccccn3)CC2)C(c2cccc(F)c2)C1 (stereo not drawn) [AR234960],719 ± 12 nM,dose dependent reduction,significant increase,–,–,–
"NC(=O)[C@H](CO)NCc1ccc(C(=O)Nc2ccc(Cl)cc2N2CCN(CCC(F)(F)F)CC2)c(F)c1F [Compound 170, (S)-4-((1-Amino-3-hydroxy-1-oxopropan-2-ylamino)methyl)-N-(4-chloro-2-(4-(3,3,3-trifluoropropyl)piperazin-1-yl)phenyl)-2,3-difluorobenzamide]",–,–,–,no significant effect,not statistically different from the positive control IB-MECA,significant to control treated animals at the 10 and 3 mg/kg dose; also recorded: suppression of TNFα induction
